Assay results as given in BindingDB's records for doi:10.1021/acs.jmedchem.9b00781 (Seoul National University, 2019).

experiment: Inhibition of RNA-dependent RNA polymerase in ZIKV SL0612 infected in African green monkey Vero cells assessed as reduction in virus-induced cytopathic effect measured after 96 hrs post-infection by MTS assay

Structure (SMILES)	EC50
Nc1ccn([C@H]2[C@H](O)[C@H](O)[C@@H](CO)C2(F)F)c(=O)n1	> 100 µM
Nc1ncnc2c1ncn2[C@@H]1C[C@H](CO)[C@@H](O)[C@H]1O [3-(6-Amino-purin-9-yl)-5-hydroxymethyl-cyclopentane-1,2-diol]	0.64 µM
CC(C)OC(=O)[C@H](C)N[P@](=O)(OC[C@@H]1[C@@H](O)[C@@H](O)[C@H](n2cnc3c(N)ncnc32)C1(F)F)Oc1ccccc1	1.75 µM
Nc1ccn([C@H]2[C@H](O)[C@H](O)[C@@H](CO)[C@H]2F)c(=O)n1	> 100 µM
CC(C)OC(=O)[C@H](C)N[P@](=O)(OC[C@@H]1[C@@H](O)[C@@H](O)[C@H](n2ccc(=O)[nH]c2=O)[C@@H]1F)Oc1ccccc1	> 100 µM
Nc1ncnc2c1ncn2[C@H]1[C@H](O)[C@H](O)[C@@H](CO)C1(F)F	0.26 µM

Now from value to compound:

EC50	Structure (SMILES)
> 100 µM	O=c1ccn([C@H]2[C@H](O)[C@H](O)[C@@H](CO)C2(F)F)c(=O)[nH]1
> 100 µM	CNc1ncnc2c1ncn2[C@H]1[C@H](O)[C@H](O)[C@@H](CO)C1(F)F
> 100 µM	CC(C)OC(=O)[C@H](C)N[P@](=O)(OC[C@@H]1[C@@H](O)[C@@H](O)[C@H](n2ccc(=O)[nH]c2=O)C1(F)F)Oc1ccccc1
> 100 µM	O=c1ccn([C@H]2[C@H](O)[C@H](O)[C@@H](CO)[C@@H]2F)c(=O)[nH]1
> 100 µM	CNc1ncnc2c1ncn2[C@H]1[C@H](O)[C@H](O)[C@@H](CO)[C@H]1F
> 100 µM	O=c1ccn([C@H]2[C@H](O)[C@H](O)[C@@H](CO)[C@H]2F)c(=O)[nH]1
